Source: patent US20230348447A1, “OXAZOLIDINONE COMPOUNDS, LIPOSOME COMPOSITIONS COMPRISING OXAZOLIDINONE COMPOUNDS AND METHOD OF USE THEREOF” (priority 2020, published 2023)
Converted amounts (≈) assume the structure as drawn. Like-named read-outs stand apart in the source and are kept apart here.

Key:
[1] = test system: African green monkey kidney (Vero; ATCC # CCL81) cells; assay: In vitro cytotoxicity (PrestoBlue cell viability), Vero; assay type: cell-based
[2] = test system: M.tb H37Rv; assay: Broth microdilution MIC with Alamar blue endpoint (MABA) / OD600; assay type: cell-based, Mycobacterium tuberculosis
[3] = test system: M.tb Erdman; assay: as above; assay type: cell-based, Mycobacterium tuberculosis
[4] = test system: human hepatocyte/liver (HepG2; ATCC #HB8065) cells; assay: In vitro cytotoxicity (PrestoBlue cell viability), HepG2; assay type: cell-based
[5] = test system: M. Tuberculosis Erdman or H37Rv vs VERO or HepG2 cells; assay: Selectivity Index (mammalian cell IC50 / bacterial MIC); design: species or system Mycobacterium tuberculosis
[6] = Liposome loading / encapsulation efficiency (General protocol)
[7] = test system: MRSA 880 NR-49120; assay: MIC against methicillin resistant Staphylococcus aureus (MRSA); conditions: read-out: MRSA MIC, 880 NR-49120
[8] = test system: MRSA ATCC BAA-1556; assay: as above
[9] = test system: MRSA ATCC 43300; assay: as above; conditions: read-out: MRSA MIC, ATCC 43300
[10] = test system: MRSA strain MW-2 (USA 400); assay: Rabbit left-sided aortic valve endocarditis model of MRSA; assay type: in vivo, Staphylococcus aureus (in New Zealand white rabbits); conditions: for Kidneys, MRSA count / Liver, MRSA count / Lungs, MRSA count / Spleen, MRSA count / Vegetations, MRSA count: rabbits, DAP 2 mg/kg daily for four days alone
[11] = Chlorocebus sabaeus, Vero, 72 h; read-out: Cell viability IC50, VERO
[12] = Mycobacterium tuberculosis, H37RV; read-out: Mycobacterium tuberculosis MIC, H37Rv
[13] = Mycobacterium tuberculosis, ERDMAN; read-out: Mycobacterium tuberculosis MIC, Erdman
[14] = Homo sapiens, HepG2, 72 h; read-out: Cell viability IC50, HepG2
[15] = Mycobacterium tuberculosis, H37RV, read-out: Mycobacterium tuberculosis MIC, H37Rv
[16] = Mycobacterium tuberculosis, ERDMAN, read-out: Mycobacterium tuberculosis MIC, Erdman
[17] = Chlorocebus sabaeus, Vero, 72 h, read-out: Cell viability IC50, VERO
[18] = Homo sapiens, HepG2, 72 h, read-out: Cell viability IC50, HepG2

SMILES | IC50 [1, 11] [mg/L] | MIC [2, 12] [mg/L] | MIC [3, 13] [mg/L] | IC50 [4, 14] [mg/L] | Selectivity Index (SI) Erd/HepG2 [5] | Selectivity Index (SI) Erd/VERO [5] | further results
CN(C)C[C@H]1CN(c2ccc(-c3ccc(-c4nnn(C)n4)nc3)c(F)c2)C(=O)O1 [AKG-1] | 113 (≈ 283 µM) | > 8 | > 8 | 116 (≈ 292 µM) | <14.5 | <14.1 | 
CCN(CC)C[C@H]1CN(c2ccc(-c3ccc(-c4nnn(C)n4)nc3)c(F)c2)C(=O)O1 [AKG-2] | 67.9 (≈ 160 µM) | > 8 | > 8 | 24.5 (≈ 57.6 µM) | <3.1 | <8.5 | 
CN(C)CCCC(=O)OC[C@H]1CN(c2ccc(-c3ccc(-c4nnn(C)n4)nc3)c(F)c2)C(=O)O1 [AKG-5] | 32.5 (≈ 67.2 µM) | 1 (≈ 2.07 µM) | 1 (≈ 2.07 µM) | 30.8 (≈ 63.7 µM) | 30.8 |  | Maximum encapsulated drug payload ([6]; 0.5 M AS, 0.5 mol% PEG): 627 g/mol PhL; loading efficiency at or near the maximum drug load ([6]; 1 N TEA-SOS, DL0 750-1500 g/mol PhL): ≥ 96.0%; maximum drug load ([6]; 1 N TEA-SOS, DL0 750-1500 g/mol PhL, no buffer): 982-1197 g/mol PhL; stability during liposome loading (HPLC) ([6]; Example 12): Degradation of AKG-5 during the liposome loading was detected; Drug loading efficiency ([6]; PEG-DSG 0.5 mol%, 1 N TEA-SOS, DL0 500 g/mol PhL): 101.3; Drug loading efficiency ([6]; PEG-DSG 0.5 mol%, […] AS, DL0 250 g/mol PhL): 98.5; Drug loading efficiency ([6]; PEG-DSG 0.5 mol%, […] AS, DL0 500 g/mol PhL): 97.7; Drug loading efficiency ([6]; PEG-DSG 5 mol%, 1 N TEA-SOS, DL0 500 g/mol PhL): 99.3
CN(C)CCC1CCN(C[C@H]2CN(c3ccc(-c4ccc(-c5nnn(C)n5)nc4)c(F)c3)C(=O)O2)CC1 [AKG-6] | 27.4 (≈ 53.9 µM) | > 8 | > 8 | 15.5 (≈ 30.5 µM) | <1.9 | 3.4 | 
CCN(CC)CCOC[C@H]1CN(c2ccc(-c3ccc(-c4nnn(C)n4)nc3)c(F)c2)C(=O)O1 [AKG-7] | 104 (≈ 221 µM) | > 8 | > 8 | 11.2 (≈ 23.9 µM) | <1.4 | 13.0 | 
CCN(CC)CCCNC[C@H]1CN(c2ccc(-c3ccc(-c4nnn(C)n4)nc3)c(F)c2)C(=O)O1 [AKG-8] |  |  |  |  |  |  | MIC [2, 15]: > 8 mg/L; MIC [3, 16]: > 8 mg/L
CCN(CC)CCNC[C@H]1CN(c2ccc(-c3ccc(-c4nnn(C)n4)nc3)c(F)c2)C(=O)O1 [AKG-9] |  |  |  |  | <3.5 | <17.4 | IC50 [1, 17]: 139 mg/L (≈ 297 µM); MIC [2, 15]: > 8 mg/L; MIC [3, 16]: > 8 mg/L; IC50 [4, 18]: 28.1 mg/L (≈ 60 µM)
CN(C)CCC1CCN(c2ccc(-c3ccc(N4C[C@H](CO)OC4=O)cc3F)cn2)CC1 [AKG-11] | 31.9 (≈ 72.1 µM) | 4 (≈ 9.04 µM) | 4 (≈ 9.04 µM) | 42.8 (≈ 96.7 µM) | 10.7 | 8.0 | 
CN(C)CCNc1ccc(-c2ccc(N3C[C@H](CO)OC3=O)cc2F)cn1 [AKG-12] |  |  |  |  | 16.9 | 22.3 | IC50 [1, 17]: 89.1 mg/L (≈ 238 µM); MIC [2, 15]: 4 mg/L (≈ 10.7 µM); MIC [3, 16]: 4 mg/L (≈ 10.7 µM); IC50 [4, 18]: 67.6 mg/L (≈ 181 µM)
CCN(CC)CCNc1ccc(-c2ccc(N3C[C@H](CO)OC3=O)cc2F)cn1 [AKG-13] | 93.9 (≈ 233 µM) | > 8 | > 8 | 31.8 (≈ 79 µM) | <4.0 | <11.7 | 
CN(C)CCCNc1ccc(-c2ccc(N3C[C@H](CO)OC3=O)cc2F)cn1 [AKG-14] |  | 8 (≈ 20.6 µM) | 8 (≈ 20.6 µM) |  |  |  | 
CCN(CC)CCCNc1ccc(-c2ccc(N3C[C@H](CO)OC3=O)cc2F)cn1 [AKG-15] | 156 (≈ 375 µM) | > 8 | > 8 | 35.6 (≈ 85.5 µM) | <4.5 | <19.5 | 
Cl.Cn1nnc(-c2ccc(-c3ccc(N4C[C@H](CNC(=O)CCN)OC4=O)cc3F)cn2)n1 [AKG-17] |  |  |  |  |  |  | Cell viability IC50, VERO ([1]; 72 h): >250 mg/L; Mycobacterium tuberculosis MIC, H37Rv [2]: 2 mg/L; Mycobacterium tuberculosis MIC, Erdman [3]: 2 mg/L; Cell viability IC50, HepG2 ([4]; 72 h): 37.3 mg/L
Cl.Cn1nnc(-c2ccc(-c3ccc(N4C[C@H](CNC(=O)CCCN)OC4=O)cc3F)cn2)n1 [AKG-18] |  |  |  |  |  |  | Cell viability IC50, VERO ([1]; 72 h): >250 mg/L; Mycobacterium tuberculosis MIC, H37Rv [2]: 2 mg/L; Mycobacterium tuberculosis MIC, Erdman [3]: 2 mg/L; Cell viability IC50, HepG2 ([4]; 72 h): 9.5 mg/L
Cl.Cn1nnc(-c2ccc(-c3ccc(N4C[C@H](CNC(=O)CCN)OC4=O)cc3F)cn2)n1 [AKG-19] | > 250 | > 8 | > 8 | 42.2 | 5.3 | >31.3 | 
CCN(CC)CCC(=O)OC[C@H]1CN(c2ccc(-c3ccc(-c4nnn(C)n4)nc3)c(F)c2)C(=O)O1 [AKG-20] | > 250 | 0.5 (≈ 1 µM) | 0.5 (≈ 1 µM) | 15.1 (≈ 30.3 µM) | 30.2 | >500 | 
CN(C)CCn1nnnc1-c1ccc(-c2ccc(N3C[C@H](CO)OC3=O)cc2F)cn1 [AKG-21] | > 250 | > 8 | > 8 | 156 (≈ 366 µM) | <19.5 |  | 
Cl.NCCn1nnc(-c2ccc(-c3ccc(N4C[C@H](CO)OC4=O)cc3F)cn2)n1 [AKG-23] | > 250 | 0.25 | 0.25 | 7.3 | 29.2 | >1000 | 
CCN(CC)CCn1nnc(-c2ccc(-c3ccc(N4C[C@H](CO)OC4=O)cc3F)cn2)n1 [AKG-24] | 31.3 (≈ 68.7 µM) | 1 (≈ 2.2 µM) | 1 (≈ 2.2 µM) | 11.4 (≈ 25 µM) | 11.4 | 31.3 | 
CN(C)CCCn1nnc(-c2ccc(-c3ccc(N4C[C@H](CO)OC4=O)cc3F)cn2)n1 [AKG-25] | 182 (≈ 412 µM) | 1 (≈ 2.27 µM) | 1 (≈ 2.27 µM) | 9.4 (≈ 21.3 µM) | 9.4 | 182.0 | 
CCN(CC)CCCn1nnc(-c2ccc(-c3ccc(N4C[C@H](CO)OC4=O)cc3F)cn2)n1 [AKG-26] | 128 (≈ 274 µM) | 2 (≈ 4.26 µM) | 2 (≈ 4.26 µM) | 9 (≈ 19.2 µM) | 4.5 | 64.3 | 
Cl.NCCCn1nnc(-c2ccc(-c3ccc(N4C[C@H](CO)OC4=O)cc3F)cn2)n1 [AKG-27] | 5.6 | 0.5 | 0.5 | 9 | 18.0 | 11.2 | 
CN(C)CCCn1nnc(-c2ccc(-c3ccc(N4C[C@H](CN)OC4=O)cc3F)cn2)n1 [AKG-30] |  |  |  |  | 151.2 | 884.0 | MIC [7]: > 50 mg/L; MIC ([8]; read-out: MRSA MIC): > 50 mg/L; MIC ([8]; read-out: MRSA MIC, ATCC BAA-1556): > 50 mg/L; MIC [9]: > 50 mg/L; IC50 [1, 17]: 110 mg/L (≈ 251 µM); MIC [2, 15]: 0.125 mg/L (≈ 0.284 µM); MIC [3, 16]: 0.125 mg/L (≈ 0.284 µM); IC50 [4, 18]: 18.9 mg/L (≈ 42.9 µM)
CCN(CC)CCCn1nnc(-c2ccc(-c3ccc(N4C[C@H](CN)OC4=O)cc3F)cn2)n1 [AKG-31] |  |  |  |  | 26.4 | 223.0 | 
COc1nc2ccc(Br)cc2cc1[C@@H](c1ccccc1)[C@@](O)(CCN(C)C)c1cccc2ccccc12 [Bedaquiline, reference compound] |  |  |  |  |  |  | MIC ([3]; Mycobacterium tuberculosis; M. tuberculosis Erdman / H37Rv, strains not separated; read-out: MIC): 0.125 mg/L (≈ 0.225 µM)
CCCCCCCCCC(=O)N[C@@H](Cc1c[nH]c2ccccc12)C(=O)N[C@H](CC(N)=O)C(=O)N[C@@H](CC(=O)O)C(=O)N[C@@H]1C(=O)NCC(=O)N[C@@H](CCCN)C(=O)N[C@@H](CC(=O)O)C(=O)N[C@H](C)C(=O)N[C@@H](CC(=O)O)C(=O)NCC(=O)N[C@H](CO)C(=O)N[C@@H]([C@H](C)CC(=O)O)C(=O)N[C@@H](CC(=O)c2ccccc2N)C(=O)O[C@@H]1C [Daptomycin] |  |  |  |  |  |  | efficacy on day 6 post inoculation ([10]; DAP 2 mg/kg daily x4 alone or plus a single dose of Ls-AKG38 40 mg/kg): no significant efficacy; Kidneys, MRSA count ([10]; (relapse)): 8.11 ± 0.49 log10 cfu/gm of tissue; Liver, MRSA count ([10]; (relapse)): 7.65 ± 0.26 log10 cfu/gm of tissue; Lungs, MRSA count ([10]; (relapse)): 8.00 ± 0.66 log10 cfu/gm of tissue; Spleen, MRSA count ([10]; (relapse)): 7.91 ± 0.54 log10 cfu/gm of tissue; Vegetations, MRSA count ([10]; (relapse)): 9.18 ± 0.22 log10 cfu/gm of tissue; Kidneys, MRSA count ([10]; day 6): 6.90 ± 0.61 log10 cfu/gm of tissue; Liver, MRSA count ([10]; day 6): 6.77 ± 0.90 log10 cfu/gm of tissue; Lungs, MRSA count ([10]; day 6): 6.37 ± 0.64 log10 cfu/gm of tissue; Spleen, MRSA count ([10]; day 6): 7.43 ± 0.38 log10 cfu/gm of tissue; Vegetations, MRSA count ([10]; day 6): 8.13 ± 0.17 log10 cfu/gm of tissue
